pEC50, pKi: −log10 of the molar value.

The target in assay [1] is T1, EP4 (Homo sapiens, UniProt P35408). The experiment in a line: Radioligand binding, EP4. The following applies: [3H]PGE2 competition. Also on record: expressed in transfected cells; membrane fraction. As to the method: (§1) Data from running binding and activity studies on the compounds of the invention were carried out as described in U.S. Pat. No. 7,427,685, the contents of which are incorporated herein by reference.
(§2) Cells Stably Expressing EP1, EP2, EP4, and FP Receptors
(§3) HEK-293 cells stably expressing the human or feline FP receptor, or EP1, EP2, or EP4 receptors were washed with TME buffer, scraped from the bottom of the flasks, and homogenized for 30 sec using a Brinkman PT 10/35 polytron. TME buffer was added to achieve a final 40 ml volume in the centrifuge tubes (the composition of TME is 100 mM TRIS base, 20 mM MgCl2, […]; ION HCl is added to achieve a pH of 7.4).
(§4) The cell homogenate was centrifuged at 19000 rpm for 20 min at 4° C. using a Beckman Ti-60 rotor. The resultant pellet was resuspended in TME buffer to give a final 1 mg/ml protein concentration, as determined by Biorad assay. Radioligand binding competition assays vs. [^3H-]17-phenyl PGF2α (5 nM) were performed in a 100 μl volume for 60 min. Binding reactions were started by adding plasma membrane fraction. The reaction was terminated by the addition of 4 ml ice-cold TRIS-HCl buffer and rapid filtration through glass fiber GF/B filters using a Brandel cell harvester. The filters were washed 3 times with ice-cold buffer and oven dried for one hour.
(§5) [^3H-] PGE2 (specific activity 180 Ci mmol) was used as the radio ligand for EP receptors. [^3H] 17-phenyl PGF2α was employed for FP receptor binding studies. Binding studies employing EP1, EP2, EP4 and FP receptors were performed in duplicate in at least three separate experiments. A 200 μl assay volume was used. Incubations were for 60 min at 25° C. and were terminated by the addition of 4 ml of ice-cold 50 mM TRIS-HCl, followed by rapid filtration through Whatman GF/B filters and three additional 4 ml washes in a cell harvester (Brandel). Competition studies were performed using a final concentration of 5 nM [^3H]-PGE2, or 5 nM [^3H] 17-phenyl PGF2α and non-specific binding determined with 10^−5M of unlabeled PGE2, or 17-phenyl PGF2α, according to receptor subtype studied.

In assay [2] the target is T1, EP4. In words: cAMP assay, EP4. The class given is cell-based. On the set-up: expressed in transfected cells; host or cells: HEK-EBNA cells. The following applies: HEK-EBNA cells expressing EP4. As to the method:
A 384-well drug plate was prepared to contain 6 test compounds, PGE2 and cAMP in 16 serial dilutions in triplicate, using a Biomek station. HEK-EBNA cells expressing a target PG receptor subtype (EP2 or EP4) were suspended in a stimulation buffer (HBSS, 0.1% BSA, 0.5 mM IBMX and 5 mM HEPES, pH 7.4) in a density of 10^4 cells/5 μL. The reaction was initiated by mixing 5 μL drug dilutions with 5 μL of HEK-EBNA cells in a well, carried out for 30 min at room temperature, and followed by the addition of 5 μL anti-cAMP acceptor beads in the control buffer with Tween-20 (25 mM NaCl, 0.03% Tween-20, 5 mM HEPES, pH 7.4). After 30 min in the dark at room temperature, the mixtures were incubated with 15 μL biotinylated-cAMP/strepavidin donor beads in Lysis/Detection buffer (0.1% BSA, 0.3% Tween-20 and 5 mM HEPES, pH 7.4) for 45 min at the room temperature. Fluorescence changes were read using a Fusion-alpha HT microplate reader.

Another assay deals with EP2 (Homo sapiens, UniProt P43116). In words: Ki competition binding, EP2. Also on record: expressed in transfected cells. The following applies: [3H]PGE2 competition; NA = no activity. The procedure:
as §1
Competition binding experiments were performed in a medium containing Hank's balanced salt solution, Hepes 20 mM, pH 7.3, membranes (˜60 μg protein) or 2×10^5 cells from HEK 293 cells stably expressing human EP2 receptors, [^3H]PGE2 (10 nM) and various concentrations of test compounds in a total volume of 300 μl. Reaction mixtures were incubated at 23° C. for 60 min, and were filtered over Whatman GF IB filters under vacuum. Filters were washed three times with 5 ml ice-cold buffer containing 50 mM Tris/HCl (PH 7.3). Non-specific binding was estimated in the presence of excess unlabeled PGE2 (10 μM). Binding data fitted to the binding model for a single class of binding sites, using nonlinear regression analysis. IC50 values thus obtained were converted to Ki using the equation of Ki=(IC50/(1+[L]/KD) where [L] represents PGE2 concentration (10 nM) and KD the dissociation constant for [^3H]PGE2 at human EP2 receptors (40 nM).
as §2, §3, §4, §5

Chain of EP2 (P43116 whole entry): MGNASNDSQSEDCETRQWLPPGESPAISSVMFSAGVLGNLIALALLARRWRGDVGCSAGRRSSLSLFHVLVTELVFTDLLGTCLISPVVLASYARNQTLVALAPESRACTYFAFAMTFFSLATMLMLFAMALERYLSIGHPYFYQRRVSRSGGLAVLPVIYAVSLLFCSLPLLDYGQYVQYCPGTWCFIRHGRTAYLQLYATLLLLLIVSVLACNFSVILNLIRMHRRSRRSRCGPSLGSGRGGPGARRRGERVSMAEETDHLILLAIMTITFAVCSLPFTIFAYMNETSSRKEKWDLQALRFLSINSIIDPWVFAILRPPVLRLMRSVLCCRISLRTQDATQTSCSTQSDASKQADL
T1 sequence (P35408 whole entry): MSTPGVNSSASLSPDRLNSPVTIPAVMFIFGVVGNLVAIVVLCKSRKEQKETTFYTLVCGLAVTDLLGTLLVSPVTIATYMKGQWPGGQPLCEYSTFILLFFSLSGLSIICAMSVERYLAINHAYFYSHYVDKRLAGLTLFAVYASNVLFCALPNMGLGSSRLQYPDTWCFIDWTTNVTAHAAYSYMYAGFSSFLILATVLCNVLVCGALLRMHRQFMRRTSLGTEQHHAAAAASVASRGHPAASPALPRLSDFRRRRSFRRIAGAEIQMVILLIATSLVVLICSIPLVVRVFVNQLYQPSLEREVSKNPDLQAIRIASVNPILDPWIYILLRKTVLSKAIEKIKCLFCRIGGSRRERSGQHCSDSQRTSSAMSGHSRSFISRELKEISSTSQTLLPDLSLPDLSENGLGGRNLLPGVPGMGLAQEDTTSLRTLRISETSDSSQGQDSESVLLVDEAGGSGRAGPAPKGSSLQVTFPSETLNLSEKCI

The pKi is −log10 of the Ki, conventionally taken in molar units. One may read the pEC50 as −log10 of the EC50, conventionally taken in molar units. On to `COc1cc(CC2C3CCC(C3)C2C(=O)NCc2ccc(C(=O)O)cc2)cc(OC)c1` (racemic) [Example 39, 4-((3-(3,5-Dimethoxybenzyl)bicyclo[2.2.1]heptane-2-carboxamido)methyl)benzoic Acid], for which the negative logarithm of the Ki (pKi) at EP4 [1] was 7.11. Also, the pEC50 at EP4 [2] is less than 5.00.

On to `COc1ccccc1CC1=C(C(=O)NCc2ccc(C(=O)O)cc2)CCCC1` [Example 30, 4-((2-(2-Methoxybenzyl)cyclohex-1-enecarboxamido)methyl)benzoic Acid], for which the pKi at EP4 [1] is 8.22; at EP2 it was 6.66. Also, at EP4 [2], the pEC50 is less than 5.00.

With `COc1ccc(CC2CCCCC2C(=O)NCc2ccc(C(=O)O)cc2)cc1` (single isomer, unassigned) [Example 34, 4-((2-(4-Methoxybenzyl)cyclohexanecarboxamido)methyl)benzoic Acid], the pKi was 7.36 on EP4 [1] and less than 5.00 at EP2. Moreover, the pEC50 at EP4 [2] is less than 5.00.

In the case of `COc1cccc(CC2CCCCC2C(=O)NCc2ccc(C(=O)O)cc2)c1OC` (single isomer, unassigned) [Example 16, 4-((2-(2,3-Dimethoxybenzyl)cyclohexanecarboxamido)methyl)benzoic Acid], the values for the pKi at EP4 [1] and on EP2 were 6.94 and 5.39, respectively. At EP4 [2], this molecule gave a negative logarithm of the EC50 (pEC50) of less than 5.00.

In the case of `COc1cc(/C=C2\[C@@H]3CC[C@@H](C3)[C@H]2C(=O)NCc2ccc(C(=O)O)cc2)cc(OC)c1` (racemic) [Example 37, 4-(((1S,2R,4R,E)-3-(3,5-Dimethoxybenzylidene)bicyclo[2.2.1]heptane-2-carboxamido)methyl)benzoic Acid], at EP4 [1], the negative-log Ki (pKi) was 6.49. For the same molecule, the pEC50 on EP4 [2] is less than 5.00.

Regarding `O=C(O)c1ccc(CNC(=O)C2CCCCC2Cc2ccccc2)cc1` (single isomer, unassigned) [Example 26, 4-((2-Benzylcyclohexanecarboxamido)methyl)benzoic Acid], the pKi at EP4 [1] was 6.94; at EP2 it was 5.53. Moreover, on EP4 [2], the negative-log EC50 (pEC50) was 7.46.

In the case of `COc1cccc(CC2CCCCC2C(=O)NCc2ccc(C(=O)O)cc2)c1` (single isomer, unassigned) [Example 28, 4-((2-(3-Methoxybenzyl)cyclohexanecarboxamido)methyl)benzoic Acid], the pKi at EP4 [1] is 8.40; at EP2, 5.63. The molecule also showed a pEC50 at EP4 [2] of less than 5.00.

Regarding `COc1cccc(CC2CCCCC2C(=O)NCc2ccc(C(=O)O)cc2)c1` (single isomer, unassigned) [Example 29, 4-((2-(3-Methoxybenzyl)cyclohexanecarboxamido)methyl)benzoic Acid], the negative-log Ki (pKi) on EP4 [1] was 7.72; on EP2, 5.59. The molecule also had a negative logarithm of the EC50 (pEC50) at EP4 [2] of 8.40.

On to `COc1ccc(OC)c(CC2CCCCC2C(=O)NCc2ccc(C(=O)O)cc2)c1` (single isomer, unassigned) [Example 19, 4-((2-(2,5-Dimethoxybenzyl)cyclohexanecarboxamido)methyl)benzoic Acid], for which the negative-log Ki (pKi) at EP4 [1] was 8.70; on EP2 it was 6.41. This molecule gave a negative logarithm of the EC50 (pEC50) at EP4 [2] of 9.70.

On to `O=C(NCc1ccc(C(=O)O)cc1)C1=C(Cc2ccccc2Cl)CCCC1` [Example 24, 4-((2-(2-Chlorobenzyl)cyclohex-1-enecarboxamido)methyl)benzoic Acid], for which the negative-log Ki (pKi) at EP4 [1] was 8.40; on EP2, 7.08. The molecule also gave a pEC50 on EP4 [2] of less than 5.00.

With `COc1cccc(CC2=C(C(=O)NCc3ccc(C(=O)O)cc3)CCCC2)c1OC` [Example 14, 4-((2-(2,3-Dimethoxybenzyl)cyclohex-1-enecarboxamido)methyl)benzoic Acid], the pKi on EP4 [1] was 7.35; at EP2, 5.92. The pEC50 at EP4 [2] was less than 5.00.

Consider `COc1ccc(CC2CCCCC2C(=O)NCc2ccc(C(=O)O)cc2)cc1OC` (single isomer, unassigned) [Example 22, 4-((2-(3,4-Dimethoxybenzyl)cyclohexanecarboxamido)methyl)benzoic Acid], for which, on EP4 [1], the pKi is 8.40. This molecule also showed a pEC50 at EP4 [2] of less than 5.00.

Consider `O=C(O)c1ccc(CNC(=O)C2CCCCC2Cc2ccccc2)cc1` (single isomer, unassigned) [Example 25, 4-((2-Benzylcyclohexanecarboxamido)methyl)benzoic Acid], for which the pKi on EP4 [1] was 7.24; at EP2, 5.31. The molecule further showed a pEC50 at EP4 [2] of less than 5.00.

For the molecule `COc1cc(CC2=C(C(=O)NCc3ccc(C(=O)O)cc3)C3CCC2C3)cc(OC)c1` (centres unmarked) [Example 36, 4-((3-(3,5-Dimethoxybenzyl)bicyclo[2.2.1]hept-2-ene-2-carboxamido)methyl)benzoic Acid], the pKi on EP4 [1] is 6.00.

In the case of `CN(Cc1ccc(C(=O)O)cc1)C(=O)C1=C(Cc2cccc(C(F)(F)F)c2)CCC1` [Example 7, 4-((N-Methyl-2-(3-(trifluoromethyl)benzyl)cyclopent-1-enecarboxamido)methyl)benzoic Acid], the pKi at EP4 [1] is 5.80.

The molecule `COc1ccc(CC2=C(C(=O)NCc3ccc(C(=O)O)cc3)CCCC2)cc1OC` [Example 21, 4-((2-(3,4-Dimethoxybenzyl)cyclohex-1-enecarboxamido)methyl)benzoic Acid] had a pKi at EP4 [1] of 8.40. At EP4 [2], this molecule gave a pEC50 of less than 5.00.

As for `COc1cccc(CC2=C(C(=O)NCc3ccc(C(=O)O)cc3)CCCC2)c1` [Example 27, 4-((2-(3-Methoxybenzyl)cyclohex-1-enecarboxamido)methyl)benzoic Acid], the negative-log Ki (pKi) on EP4 [1] was 8.70; at EP2, 6.86. The molecule also gave a pEC50 on EP4 [2] of less than 5.00.

For `COc1ccc(CC2=C(C(=O)NCc3ccc(C(=O)O)cc3)CCCC2)cc1` [Example 33, 4-((2-(4-Methoxybenzyl)cyclohex-1-enecarboxamido)methyl)benzoic Acid], the figures for the pKi at EP4 [1] and at EP2 were 9.00 and 5.94, respectively. The pEC50 at EP4 [2] was less than 5.00.

As for `COc1ccccc1CC1CCCCC1C(=O)NCc1ccc(C(=O)O)cc1` (single isomer, unassigned) [Example 31, 4-((2-(2-Methoxybenzyl)cyclohexanecarboxamido)methyl)benzoic Acid], the pKi at EP4 [1] was 8.30; on EP2 it was 6.00. Further, the negative-log EC50 (pEC50) on EP4 [2] is less than 5.00.

`COc1cc(C/C2=C(\C(=O)NCc3ccc(C(=O)O)cc3)CCCCCC2)cc(OC)c1` [Example 20, 4-((2-(3,5-Dimethoxybenzyl)cyclooct-1-enecarboxamido)methyl)benzoic Acid]: the pKi is 9.70 on EP4 [1] and less than 5.00 at EP2. The molecule also showed a negative logarithm of the EC50 (pEC50) on EP4 [2] of less than 5.00.

`COc1cc(CC2C3CCC(C3)C2C(=O)NCc2ccc(C(=O)O)cc2)cc(OC)c1` (centres unmarked) [Example 38, 4-((3-(3,5-Dimethoxybenzyl)bicyclo[2.2.1]heptane-2-carboxamido)methyl)benzoic Acid] gave a pKi at EP4 [1] of 6.40. The pEC50 on EP4 [2] is less than 5.00.

Take `COc1ccc(CC2CCCCC2C(=O)NCc2ccc(C(=O)O)cc2)cc1OC` (single isomer, unassigned) [Example 23, 4-((2-(3,4-Dimethoxybenzyl)cyclohexanecarboxamido)methyl)benzoic Acid]: on EP4 [1], the negative-log Ki (pKi) is 8.10. At EP4 [2], this molecule gave a pEC50 of less than 5.00.

The values are drawn from patent US10407382B2, “EP4 agonists as therapeutic compounds” (ALLERGAN, INC., priority 2014, dated 2019).
